Where “and” joins values, the source holds several entries; their conditions need not be identical. Identical values can stand only once. Where a SMILES comes first, the peptide text is derived from it. [ ]: non-standard residue; d: D form. Cit = NC(=O)NCCC[C@H](N)C(=O)O
How the values were obtained:
[1] = tested on: ACPA pool II (affinity purified human anti-CCP2 IgG); test: ACPA competition assay: peptide pre-incubated with ACPA, then anti-CCP2 ELISA (CCPlus); type: binding; conditions: for maximum ACPA blocking (inhibition of anti-CCP2 reactivity): ACPA pool II 1.2 μg/ml (8 nM IgG), peptide 0.016-320 nmol in 225 μl, 1 h room temperature before CCP2 ELISA, mean of 2-7 experiments; for IC50: ACPA pool II 1.2 μg/ml, 1 h room temperature pre-incubation, mean ± SEM, n given per value (n = 2-4), GraphPad Prism, read-out: IC50 of ACPA blocking (relative IC50)
Method: (§1) ACPA were affinity purified as recently described. Two different ACPA pools were prepared for the competition assays: ACPA pool I, containing autoantibodies purified from 11 plasma or serum samples (plasma n = 4, sera n = 7); and ACPA pool II, containing 39 plasma or serum samples (plasma n = 38, serum n = 1). Before pooling, each purified ACPA sample was individually tested by in house ELISA for immunoreactivity to fibrinogen Cit573 and citrullinated fibrinogen 36-52 [24]. Anti-CCP2 reactivity was determined using the Immunoscan CCPlus® assay. All pooled samples were CCP2 positive.
(§2) ACPA pools I and II were used at a concentration of 1.2 μg/ml (8 nM IgG). The autoantibodies were incubated with the fibrinogen and fibrinogen-derived peptides at room temperature for one hour. The mole quantities of peptides tested were: 0.016, 0.16, 1.6, 16, 22, 49, 60, 80, 120, 160, 216, and 320 nmol in an incubation volume of 225 μl. ACPA blocking by the fibrinogen peptides was subsequently assessed by measuring the remaining anti-CCP2 reactivity. Cit573 and Cit591 were equally combined and co-tested for ACPA blocking. Arginine peptides (573, 591, 72, and 74) were used as negative controls in all assays.
(§3) To further explore the blocking potential of Cit573, a retrieval assay was performed, that is, the ability of the peptide to compete with already CCP2-bound ACPA was tested. ACPA pool I was added to the CCP2 plate and incubated for one hour at room temperature, followed by the addition of the peptides (citrulline and unmodified peptides) at mole quantities ranging from 16 to 320 nmol. ACPA pools incubated with no peptide were defined as positive control, giving the maximum values of anti-CCP2 reactivity. Arbitrary units were calculated according to the standard curve given by the ELISA kit. Each experiment had one standard curve. Mean values were calculated and results are expressed as a function of percentage of inhibition of ACPA from the peptide amount (nmol).
(§4) Results are presented as mean ± standard error (SEM) of values (two to seven experiments per ACPA pool), and were compared using the Student’s t-test for unpaired comparisons using GraphPad Prism 6 software (La Jolla, CA, USA). Median values were also calculated in order to consider non-Gaussian distributions. As the mean and median values were generally coincident, the Mann-Whitney U test was not selected for statistical analysis. P <0.05 was assumed to denote a significant difference. Relative IC50 values (IC50 definition according to International Union of Pharmacology Committee on Receptor Nomenclature and Drug Classification – ‘the molar concentration of an antagonist that reduces the response to an agonist by 50 %’ [25]) were also calculated using GraphPad Prism 6 software. Cutoffs for the ISAC system chip data were calculated as the 98th percentile reactivity among the 461 EIRA controls investigated in parallel to the 927 RA patients.

[2] = tested on: ACPA pool I (affinity purified human anti-CCP2 IgG); test: as above; type: binding; conditions: for maximum ACPA blocking (inhibition of anti-CCP2 reactivity): ACPA pool I 1.2 μg/ml (8 nM IgG), peptide 0.016-320 nmol in 225 μl, 1 h room temperature before CCP2 ELISA, mean of 2-7 experiments; for IC50: ACPA pool I 1.2 μg/ml, 1 h room temperature pre-incubation, mean ± SEM, n given per value (n = 2-6), GraphPad Prism, read-out: IC50 of ACPA blocking (relative IC50)
Method: as §1, §2, §3, §4

[3] = tested on: ACPA pool I bound to CCP2 plate; test: Retrieval assay: peptide competes with already CCP2-bound ACPA; type: binding, human; conditions: ACPA pool I bound to CCP2 plate 1 h room temperature, then peptide 16-320 nmol; data not shown
Method: as §3

[4] = tested on: sera from RA patients (EIRA cohort); test: Peptide microarray (ImmunoCAP ISAC), immune reactivity of sera against the fibrinogen peptides; type: binding, human; conditions: for positive immune reactivity among anti-CCP2-positive RA patients: 402 CCP2-positive RA sera; for positive immune reactivity among anti-CCP2-positive RA patients / positive immune reactivity among anti-CCP2-negative RA patients: cutoff 98th percentile of healthy controls; for positive immune reactivity among anti-CCP2-negative RA patients: 525 CCP2-negative RA sera; for diagnostic sensitivity among all 927 RA patients: share of sera positive, Arg control intensity subtracted, cutoff 98th percentile of 461 healthy controls (98 % specificity)
Method: Serum from 927 RA patients (newly diagnosed patients within 12 months of appearance of first symptoms; 402 CCP2 positive and 525 CCP2 negative) and 461 healthy controls from the Epidemiological Investigation of RA (EIRA) case-control cohort were collected. Control samples were randomly chosen from the Swedish population registry, matching for age, sex, and residential area. All serum and plasma samples were stored at −70 °C prior to analysis. All patients fulfilled the American College of Rheumatology-European League Against Rheumatism criteria for RA [20]. CCP2-positive RA individuals used for ACPA affinity purification were selected based on having high anti-CCP2 antibody levels (>300 AU/ml, Immunoscan CCPlus® assay, Euro-Diagnostica AB, Sweden). All patients gave written informed consent. This study was approved by the regional ethical committee at the Karolinska Institutet (96-174), and performed in accordance with the Declaration of Helsinki.
Peptide microarray was performed as previously described. Briefly, peptides (sequences in Table 1) were immobilized onto a chemically modified glass slide, sera from RA patients and healthy controls were applied into the reactions sites, and fluorescence intensity after incubation with anti-human IgG antibody was acquired in a laser scanner (LuxScan 10K, CapitalBio, Beijing, China). Final results for each citrullinated peptide were calculated by subtracting the intensity values of the corresponding arginine-containing control from the citrullinated peptide for all RA patients and controls. Cutoff values were determined as the 98th percentile of the healthy control responses. Microarray data are available in the ArrayExpress database under accession number [EMBL:E-MTAB-3606].
as §4

IC50 [2] [µM]	IC50 [1] [µM]	ACPA binding to the CCP2 ELISA plate reverted (retrieval) [3] [%]	SMILES	maximum ACPA blocking (inhibition of anti-CCP2 reactivity) [1]	maximum ACPA blocking (inhibition of anti-CCP2 reactivity) [2] [%]	maximum ACPA blocking (inhibition of anti-CCP2 reactivity) ([2]; listed as cyclic form of the Cit573 peptide)	positive immune reactivity among anti-CCP2-positive RA patients [4]	positive immune reactivity among anti-CCP2-negative RA patients [4]	diagnostic sensitivity among all 927 RA patients [4] [%]
28	–	–	CC[C@H](C)[C@@H]1NC(=O)CNC(=O)[C@@H]2CCCN2C(=O)[C@H](Cc2c[nH]cn2)NC(=O)[C@H](Cc2c[nH]cn2)NC(=O)[C@H](CS)NC(=O)[C@H](Cc2ccccc2)NC(=O)[C@H](CCC(N)=O)NC(=O)[C@H](CCCCN)NC(=O)[C@H](CO)NC(=O)[C@H](Cc2ccc(O)cc2)NC(=O)[C@H](CO)NC(=O)[C@H](CO)NC(=O)[C@H](CO)NC(=O)[C@H](CCCCN)NC(=O)CNC(=O)[C@H](CCCNC(N)=O)NC(=O)[C@H](CO)NC(=O)[C@@H]2CCCN2C(=O)[C@H](Cc2ccccc2)NC(=O)[C@H](CCC(=O)O)NC(=O)[C@H](C)NC1=O [Cit573Cyc] (cyclo(CHHPGIAEFPS[Cit]GKSSSYSKQF))	approximately 90%	92	approximately 90%	–	–	–
51	186	–	CC[C@H](C)[C@H](NC(=O)CN)C(=O)N[C@@H](C)C(=O)N[C@@H](CCC(=O)O)C(=O)N[C@@H](Cc1ccccc1)C(=O)N1CCC[C@H]1C(=O)N[C@@H](CO)C(=O)N[C@@H](CCCNC(N)=O)C(=O)NCC(=O)N[C@@H](CCCCN)C(=O)N[C@@H](CO)C(=O)N[C@@H](CO)C(=O)N[C@@H](CO)C(=O)N[C@@H](Cc1ccc(O)cc1)C(=O)N[C@@H](CO)C(=O)O [Cit573Lin1] (H-GIAEFPS[Cit]GKSSSYS-OH; N-terminus assumed)	47%	75	–	–	–	–
123	105	–	C[C@H](N)C(=O)N[C@@H](CCC(=O)O)C(=O)N[C@@H](Cc1ccccc1)C(=O)N1CCC[C@H]1C(=O)N[C@@H](CO)C(=O)N[C@@H](CCCNC(N)=O)C(=O)NCC(=O)N[C@@H](CCCCN)C(=O)N[C@@H](CO)C(=O)N[C@@H](CO)C(=O)N[C@@H](CO)C(=O)O [Cit573Lin2] (H-AEFPS[Cit]GKSSS-OH; N-terminus assumed)	40%	69	–	–	–	–
59	548	80	CC[C@H](C)[C@H](NC(=O)CNC(=O)[C@@H]1CCCN1C(=O)[C@H](Cc1c[nH]cn1)NC(=O)[C@@H](N)Cc1c[nH]cn1)C(=O)N[C@@H](C)C(=O)N[C@@H](CCC(=O)O)C(=O)N[C@@H](Cc1ccccc1)C(=O)N1CCC[C@H]1C(=O)N[C@@H](CO)C(=O)N[C@@H](CCCNC(N)=O)C(=O)NCC(=O)N[C@@H](CCCCN)C(=O)N[C@@H](CO)C(=O)N[C@@H](CO)C(=O)N[C@@H](CO)C(=O)N[C@@H](Cc1ccc(O)cc1)C(=O)N[C@@H](CO)C(=O)N[C@@H](CCCCN)C(=O)N[C@@H](CCC(N)=O)C(=O)N[C@@H](Cc1ccccc1)C(=O)O [Cit573] (H-HHPGIAEFPS[Cit]GKSSSYSKQF-OH)	Approximately 50%	84	–	65% and 65.4%	5% and 5.5%	31.5
194	412	–	C[C@@H](O)[C@H](NC(=O)[C@H](CO)NC(=O)[C@H](CC(=O)O)NC(=O)CNC(=O)[C@H](CCCNC(N)=O)NC(=O)[C@H](CC(N)=O)NC(=O)[C@H](Cc1ccc(O)cc1)NC(=O)[C@H](CO)NC(=O)[C@@H](NC(=O)[C@H](CO)NC(=O)[C@H](CO)NC(=O)[C@@H](NC(=O)[C@H](Cc1ccccc1)NC(=O)[C@H](CCC(N)=O)NC(=O)[C@H](CCCCN)NC(=O)[C@@H](N)CO)[C@@H](C)O)[C@@H](C)O)C(=O)N[C@@H](Cc1ccccc1)C(=O)N[C@@H](CCC(=O)O)C(=O)N[C@@H](CO)C(=O)N[C@@H](CCCCN)C(=O)N[C@@H](CO)C(=O)O [Cit591] (H-SKQFTSSTSYN[Cit]GDSTFESKS-OH)	–	63	–	15% and 14.7%	6% and 6.1%	9.8

From article PMC4484629, “Targeting of anti-citrullinated protein/peptide antibodies in rheumatoid arthritis using peptides mimicking endogenously citrullinated fibrinogen antigens” (Arthritis Research & Therapy, 2015)
